# Entries after “also recorded” stand apart in the source; their conditions may differ.
# Assays:
# Format in all cases: cell-based
# Colo-205 cells = assay: MTT cell proliferation assay, Colo-205; conditions: 72 h-exposure, 30-0.041 μM
# Procedure: In vitro characterizing of the effects of rilyazine analogs on cell proliferation and apoptosis in the paired epithelial/mesenchymal lines (Colo205/Colo-R, DLD/DLD-SNAIL and MCF7/MCF7-WISP) was performed in an independent laboratory.
# The Dose Preparation is based on a reconstitute in DMSO. The Concentration of the stock solution is 100 mM. Storage of the stock solution is under −80° C.
# Working drug solution of rilyazine analogs: A stock solution of 100 mM OTX015 in DMSO was prepared and stored at −80° C. For growth inhibition studies, dilution series were prepared by (1) diluting stock solution into DMSO, then (2) diluting 1:300 in culture medium supplemented with 10% FBS giving a final concentration in 0.3% DMSO in the 96-well plates.
# Cell lines. Cells lines were maintained in RPMI 1640 (PAA Laboratories, France) supplemented with 10% fetal bovine serum (FBS; PAA Laboratories, France), 2 mM glutamine (PAA Laboratories, France), 100 units/ml penicillin and 100 μg/ml streptomycin (PAA Laboratories, France). Cells were free of Mycoplasma.
# Proliferation assays. Cell proliferation was determined using the MTT assay (3-[4,5-dimethylthiazol-2-yl]-2,5-diphenyltetrazolium bromide; Sigma-Aldrich, St. Louis, Mo.). […] After incubation, the supernatant was discarded, the cell pellet was resuspended in 0.1 mL DMSO, and the absorbance was measured at 560 nm using a microplate reader (Thermo, France). […]
# [1] = system: 60 cell lines (human tumor cell lines of the cancer screening panel); assay: NCI 60 cell line screening, five point dosing (SRB)
# Procedure: (§1) RL-4 was evaluated against the 60 cell panel at five concentration levels, 10^−8 M, 10^−7 M, 10^−6 M, 10^−5 M and 10^−4 M.
# (§2) The human tumor cell lines of the cancer screening panel are grown in RPMI 1640 medium containing 5% fetal bovine serum and 2 mM L-glutamine. Cells are inoculated into 96 well microtiter plates in 100 μL at plating densities ranging from 5,000 to 40,000 cells/well depending on the doubling time of individual cell lines. After cell inoculation, the microtiter plates are incubated at 37° C., 5% CO2, 95% air and 100% relative humidity for 24 h prior to addition of experimental drugs.
# After 24 h, two plates of each cell line are fixed in situ with TCA, to represent a measurement of the cell population for each cell line at the time of drug addition Time Zero (Tz). Experimental drugs are solubilized in dimethyl sulfoxide:glycerol 9:1 at 400-fold the desired final maximum test concentration and stored frozen at −70° C. prior to use. At the time of drug addition, an aliquot of frozen concentrate is thawed and diluted to twice the desired final maximum test concentration with complete medium containing 50 μg/ml gentamicin. Additional four, 10-fold or ½ log serial dilutions are made to provide a total of five drug concentrations plus control. Aliquots of 100 μl of these different drug dilutions are added to the appropriate microtiter wells already containing 100 μl of medium, resulting in the required final drug concentrations.
# Positive control is prepared by adding the known anti-tumor agent adriamycin, NSC 123127, prepared and stored the same as the compounds for testing.
# Following drug addition, the plates are incubated for an additional 48 h at 37° C., 5% CO2, 95% air, and 100% relative humidity. For adherent cells, the assay is terminated by the addition of cold TCA. Cells are fixed in situ by the gentle addition of 50 μl of cold 50% (w/v) TCA (final concentration, 10% TCA) and incubated for 60 minutes at 4° C. The supernatant is discarded, and the plates are washed five times with tap water and air dried. Sulforhodamine B (SRB) solution (100 μl) at 0.4% (w/v) in 1% acetic acid is added to each well, and plates are incubated for 10 minutes at room temperature. After staining, unbound dye is removed by washing five times with 1% acetic acid and the plates are air dried. Bound stain is subsequently solubilized with 10 mM trizma base, and the absorbance is read on an automated plate reader at a wavelength of 515 nm. For suspension cells, the methodology is the same except that the assay is terminated by fixing settled cells at the bottom of the wells by gently adding 50 μl of 80% TCA (final concentration, 16% TCA).
# (§3) The percentage growth is calculated at each of the five drug concentrations levels using the seven absorbance measurements, namely absorbance at time zero (Tz), absorbance of control after incubation (C), and absorbance of test sample after incubation in the presence of drug at each of the five concentration levels (Ti). The Growth Percent is calculated as it was for the 1 dose assay: Growth Percent=[(Ti−Tz)/(C−Tz)]×100 for cell line/drug combinations for which Ti≧Tz. Growth Percent=[(Ti−Tz)/Tz]×100 for cell line/drug combinations for which Ti<Tz.
# For the 5-dose 60 cell testing, three dose-response parameters are determined for each experimental agent. These parameters are Growth Inhibition of 50% (GI50), drug concentration resulting in Total Growth Inhibition (TGI), and concentration resulting in 50% lethality (LC50).
# Growth inhibition of 50% (GI50) is determined as the drug concentration at which Growth Percent=[(Ti−Tz)/(C−Tz)]×100=50. GI50 is the drug concentration resulting in a 50% reduction in the net protein increase compared to the increase in protein in control cells (as measured by SRB staining) during the drug incubation.
# The drug concentration resulting in total growth inhibition (TGI) is determined as the drug concentration at which Ti=Tz, which corresponds to a Growth Percent of zero. […]
# MCF7 (Breast Cancer) = assay: NCI five point dosing, MCF7; conditions: Homo sapiens
# Procedure: as §1
# as §2, with “drugs. […]” for “drugs.”
# Following drug addition, the plates are incubated for an additional 48 h at 37° C., 5% CO2, 95% air, and 100% relative humidity. […] Bound stain is subsequently solubilized with 10 mM trizma base, and the absorbance is read on an automated plate reader at a wavelength of 515 nm. […]
# as §3, with “Growth Percent=[(Ti−Tz)/Tz]×100 for cell line/drug combinations for which Ti<Tz.” left out
# [2] = five point dosing, 60 cell lines
smiles,measurement,setting,value
"S=c1c2ncccc2c(-c2ccccn2)nn1C1CCCCC1 [RL-4, 7-cyclohexyl-5-(pyridin-2-yl)pyrido[2,3-d]pyridazine-8(7H)-thione]",anti-proliferative effects (in words),Colo-205 cells,dose-dependent anti-proliferative effects
same,GI50,"[1]; Homo sapiens, five point dosing 10^−8 to 10^−4 M, mean of 60 cell lines, read-out: Mean GI50 for all 60 cell lines",20 µM
same,CC50,"[1]; Homo sapiens, five point dosing up to 10^−4 M, read-out: LC50 for all other cell lines (except COLO 205)",> 100 µM
same,toxicity (in words),[1]; concentrations up to 10^−4 M,not toxic at the concentrations tested; also recorded: not observed
same,growth inhibition / anti-proliferative efficacy (in words),"[1]; five point dosing 10^−8 to 10^−4 M, 60 cell lines",significant growth inhibition across all 60 cell lines; also recorded: anti-proliferative efficacy across a range of 60 cell lines
same,log10GI50 Delta,[1]; [2],1.45
same,log10GI50 Mean,[1]; [2],−5.0
same,log10GI50 Range,[1]; [2],2.45
same,"number of cell lines in which total growth inhibition (growth percent=0, TGI) was achieved","[1]; within dosage range tested, of 60 cell lines",eight
same,GI50,MCF7 (Breast Cancer),0.353 µM

# — US9394299B2, “Rilyazine derivatives and compositions for the treatment of cancer” (Warner Babcock Institute for Green Chemistry, LLC, priority 2013, dated 2016)
